# Data from article PMC3923730 (Journal of Translational Medicine, 2014).
# Values joined by “and” are separate entries in the source; they are usually repeats but may differ in a detail not shown here. Equal entries are not always repeated.
# Legend:
# [1] = Pharmacokinetics in rats (plasma); type: in vivo; settings: rat plasma
# Protocol: TRO40303 was administered by intravenous (i.v.) bolus to healthy rats at doses of 0.3, 1, 3 and 10 mg/kg in IL30 under isoflurane gas anaesthesia. A maximum of 0.25 mL of blood was collected into lithium heparin tubes at 5, 15 and 30 min, 1 h, 2 h, 4 h, 8 h and 24 h after drug administration (3 rats per time point). The blood samples were cooled on ice and plasma samples were prepared within 60 min of sampling by centrifugation at 1500 g at 4 °C for 10 min and stored at –20°C until analysis. For heart level measurements, TRO40303 was administrated i.v. to rats undergoing the myocardial infarction procedure at the dose of 1 mg/kg in IL30 either 10 min before CAO or 10 min before CAR. Five min after CAR, rats were anesthetised and sacrificed, hearts were isolated and washed with saline. Tissue from AAR was separated from the remainder of the left ventricle; samples were frozen and stored at –20°C until analysis. After TRO40303 plasma concentration analysis, TRO40303 plasma AUC(0-∞) (the area under the curve extrapolated from time zero to time infinity), was calculated using Kinetica™, version 4.4.1 (Thermo Electron Corporation, Philadelphia, PA 19103, USA). The results were analyzed in comparison with previous pharmacokinetic data obtained with TRO40303 formulated in HPBCD at 2.5 mg/kg.
# Thawed preclinical samples were extracted with acetonitrile, centrifuged, purified on SPEC C2 cartridge (Varian) for the heart samples and analysed along with calibration standards. Analysis was carried out on an Alliance 2695 (Waters) system interfaced to an API Quattro Micro (Waters) MS detector. Calculations were carried out with Waters QuanLynx software.
# [2] = system: myocardial infarction model in rats; parameters: method as in PMID 20215409; settings: rat myocardial infarction model, 2.5 mg/kg formulated in HPBCD; cited from earlier work
# [3] = Solubility in formulation vehicle; type: physicochemical; settings: in Intralipid® 30 (IL30), concentrations up to
# [4] = system: healthy male and post-menopausal female subjects; experiment: Phase I trial safety and tolerability; type: in vivo; settings: human
# Protocol: A randomized, double-blind, placebo controlled study was performed to investigate the safety, tolerability and pharmacokinetics of single i.v. ascending doses of TRO40303 in healthy male and post-menopausal female subjects. The choice of the dose and flow rate escalation process is explained in the Result section. Seventy-two healthy volunteers were randomized, with 18 receiving a placebo and 54 an active liposomal formulation containing 20 mg/mL TRO40303 at final doses ranging from 0.5, 1, 2, 3.5, 6, 10 to 13 mg/kg with escalating flow rates from 0.04 mL/min to 35 mL/min. Within each group, 3 or 6 subjects received TRO40303 and 1 or 2 subjects received the same volume of placebo. The sample size was based on the number of doses and flow rates to be investigated. The 6 verum/2 placebo ratio per group is widely used in single ascending dose studies and provides adequate safety and pharmacokinetic information. The 3 verum/1 placebo ratio used in the last groups was chosen only to explore additional flow rates at previously studied doses.
# Continuous recording of adverse events, continuous blood pressure monitoring for 2 hours after dosing and 12-lead electrocardiogram (ECG) at pre-dose, 15 min, 1 h, 4 h, 8 h, 24 h, 72 h and 96 h after end of infusion were performed. Vital signs, physical examination, haematology, blood biochemistry, urinalysis and haemostasis were performed before the study, at specific times after dosing and at the “end of study visit”, 7 days after administration. Blood biochemistry analysis included ASAT, ALAT, alkaline phosphatase, triglycerides, total cholesterol, HDL-cholesterol and LDL-cholesterol.
# isolated rat heart = experiment: Free radical (ESR) and lipid peroxidation (MDA-TBA) measurements in isolated rat heart; settings: 1 μM
# Protocol: To evaluate the effect of 1 μM TRO40303 on ischemia-reperfusion-induced ascorbate release and tissue depletion, effluents from control and treated hearts undergoing the perfusion protocol described above (n = 6/group) were collected for 15 s, 1 min following onset of reflow, and hearts were frozen in liquid nitrogen at the end of the reperfusion period. Ascorbate content in effluents and tissue homogenates was then assessed by quantifying the ascorbyl free radical (AFR)-dimethyl sulfoxide (DMSO) electron spin resonance (ESR) doublet as previously described, DMSO being used to stabilize the ascorbate free radical.
# To investigate whether TRO40303 could interfere with ischemia-reperfusion-triggered ROS production, hearts (n = 6) undergoing the perfusion protocol described above received the spin trap nitrone DMPO (25 mM) during the first 5 min of reperfusion. A 15-s collection of the effluents was performed pre-ischemically on three additional hearts from both groups, and 3 min after onset of reflow for the 6 ischemic/reperfused hearts. Samples were immediately stored in liquid nitrogen. The free radical content of DMPO-supplemented from TRO40303-treated and control effluents was determined by ESR in glass capillaries. The ESR signal was acquired 1.5 min after thawing of the sample using the same parameters as for ascorbate except: modulation amplitude 0.0313 mT, receiver gain 5 × 10^4 and sweep rate for each scan 0.167 mT/s.
# Lipid peroxidation in heart tissue at the end of reperfusion was evaluated using the malondialdehyde-thiobarbituric acid assay (MDA-TBA) (n = 8/group) as previously described.
# [5] = Pharmacokinetic based allometry to human; settings: allometric scaling, body weights 50-115 kg, 95% CI
# Protocol: Pharmacokinetic based allometry (natural logarithm (ln) transformation) was performed using available pharmacokinetic data (not shown) from various animal species and was used to estimate clearance (CL) and the initial volume of distribution (V1 = Dose/C0; C0 defined as the extrapolated plasma concentration at time zero) in human. Animals had received a single i.v. bolus dose of TRO40303 administered under lipid-based formulations (Intralipid® and liposomes) in rats and pigs or under cremophor EL®/ethanol/saline formulation in dogs and monkeys. The pharmacokinetic parameters were assessed from the mean (for rodents) or individual TRO40303 plasma concentration versus time profiles using a non-compartmental approach “Log Linear Method” (Kinetica™, version 4.4.1). The ln of the CL and the ln of V1 were each plotted against the ln of the animals’ body weight. Finally, using this relationship, the human CL and V1 were estimated based on the human body weight ranging from 50 to 115 kg.
# [6] = 0.5 mg/kg, 0.08 mL/min, back pain
# [7] = 2 mg/kg, 0.64 mL/min, injection site haematoma
# [8] = 3.5 mg/kg, 5 mL/min, presyncope
# [9] = 6 mg/kg, 7.5 mL/min, infusion site inflammation
# [10] = 6 mg/kg, 23 mL/min, vision blurred
# [11] = single i.v. 0.5-13 mg/kg, flow rates 0.04-35 mL/min
smiles,measurement,setting,value
"CC(C)CCC[C@@H](C)[C@H]1CC[C@H]2[C@@H]3CC/C(=N\O)[C@](C)(CCCO)[C@H]3CC[C@]12C [TRO40303, 3,5-seco-4-nor-cholestan-5-one oxime-3-ol]",AUC(0-∞),"[1]; 3 mg/kg i.v. in IL30, satellite animals",14000 ng·h/mL
same,C5min,"[1]; 3 mg/kg i.v. in IL30, satellite animals, 3 mg/kg",57.9 μM and 23.5 μg/mL
same,AUC(0-∞),"[1]; 10 mg/kg i.v. in IL30, satellite animals",44800 ng·h/mL
same,C5min,"[1]; 10 mg/kg i.v. in IL30, satellite animals, 10 mg/kg",130 μM and 52.8 μg/mL
same,reduction of infarct size,[2],38%
same,solubility,[3],~ 6 mg/mL
same,Emergent AEs: Description,"[4]; 0.5 mg/kg, 0.08 mL/min",2 episodes of back pain
same,Emergent AEs: Intensity,[4]; [6],1 Moderate and 1 Mild
same,Emergent AEs: Relationship,[4]; [6],Excluded
same,Emergent AEs: Description,"[4]; 2 mg/kg, 0.64 mL/min",1 episode of injection site haematoma
same,Emergent AEs: Intensity,[4]; [7],Moderate
same,Emergent AEs: Relationship,[4]; [7],Excluded
same,Emergent AEs: Description,"[4]; 3.5 mg/kg, 5 mL/min",1 episode of presyncope
same,Emergent AEs: Intensity,[4]; [8],Moderate
same,Emergent AEs: Relationship,[4]; [8],Unlikely
same,Emergent AEs: Description,"[4]; 6 mg/kg, 7.5 mL/min",1 episode of infusion site inflammation
same,Emergent AEs: Intensity,[4]; [9],Moderate
same,Emergent AEs: Relationship,[4]; [9],Probable
same,Emergent AEs: Description,"[4]; 6 mg/kg, 23 mL/min",1 episode of vision blurred
same,Emergent AEs: Intensity,[4]; [10],Moderate
same,Emergent AEs: Relationship,[4]; [10],Possible
same,"changes in vital signs, ECG parameters, laboratory tests or physical examinations","[4]; any time, any dose group",No relevant changes
same,clinical tolerability,[4]; [11],well tolerated clinically
same,serious adverse events,[4]; [11],no serious adverse events
same,decrease of DMPO-OH ESR signal intensity in coronary effluents,"isolated rat heart; 25 mM DMPO at reperfusion, 3 min after onset of reflow, p < 0.05, n = 6",69%
same,AFR-DMSO release in the coronary effluents versus untreated hearts,"isolated rat heart; early reperfusion (1st min), p < 0.001, n = 6",–57%
same,tissue AFR-DMSO versus untreated hearts,"isolated rat heart; end of reflow, p < 0.05, n = 6",+24%
same,MDA-TBA formation compared to vehicle-perfused hearts,"isolated rat heart; heart tissue at end of reperfusion, p < 0.01, n = 8",–65%
same,predicted human CL,[5],0.883 to 3.97 mL/min/kg
same,predicted human V1,[5],0.089 to 0.741 L/kg
